“Also recorded” adds a separate entry of the source.
Experiments:
[1] = target: T1, EcoRI (Escherichia coli, UniProt P00642); test: Peptide inhibitor assay (PIA): EcoRI digestion of pCRII-TOPO-OR23 plasmid, fluorescence intensity of the excised OR23 band on agarose gel; type: biochemical; conditions: 3 h
T1 construct: The first M is removed after translation in this protein; purchased New England Biolabs
Protocol: Peptide synthesis was performed by GenScript Japan (Tokyo, Japan). All peptides were confirmed to be more than 75% pure via high-performance liquid chromatography (HPLC) and to have theoretical molecular weights via mass spectrometry (MS). The peptides were dissolved in DMSO (dimethyl sulfoxide) and were prepared at 5.59 × 10^−9 mol/μL (5.59 mM). When 1.0 μL of this peptide mixture was mixed in a tube for the inhibition of EcoRI catalytic activity, the molar ratio of EcoRI to peptide was 1:500. This concentration in molar equivalence was used throughout this study unless otherwise noted.
Purified and concentrated EcoRI (20,000 U/mL, approximately 338 μg/mL, 1.12 × 10^−[…]) was obtained from New England Biolabs (Ipswich, MA, USA). To quantify and visualize the inhibitory effects of the peptides, the enzymatic reaction conditions were set so that at least three hours of incubation were required to completely digest the substrate plasmid DNA with EcoRI. To do so, we used a low Mg^2+ concentration (0.015 mM) in the reaction mixture in contrast to the optimum concentration of Mg^2+ for EcoRI (10 mM).
(§1) All master solutions and samples were prepared on ice. A single reaction tube contained the following common ingredients: autoclaved DNase-free RNase-free deionized H2O (12.5 μL) (Nippon Gene), 10× NE Buffer Mg^2+-free (2.0 μL), pCRII-TOPO-OR23 plasmid DNA (2.0 μL of 40 ng/μL solution), MgCl2 (1.5 μL of 0.20 mM solution), and EcoRI (1.0 μL). A master solution containing these ingredients without DMSO or a peptide was first prepared for the number of sample tubes. The master solution was aliquoted into 1.5 mL spin tubes (19.0 μL per tube). Then, 1.0 μL of DMSO or a peptide sample was added, and the mixture was incubated at 37 °C. A negative control with DMSO but without a peptide (“no peptide” control) was run in every assay. When the digestion efficiency was compared, another negative control with autoclaved DNase-free RNase-free H2O without EcoRI was prepared. After the reaction, the samples were quickly cooled on ice for ten minutes and then stored at −80 °C until agarose gel electrophoresis. The above protocol was conducted for all peptides (including BP19.5, BP19.5N, and BP19.5C) used in the present study unless otherwise noted.
To quantify EcoRI activity after incubation of a reaction mixture, digested pCRII-TOPO-OR23 plasmid DNA was examined via agarose gel electrophoresis. We first prepared a 25 mL solution of 1.0% agarose (Nippon Gene) in TAE (Tris-acetate-EDTA) buffer (Promega, Madison, WI, USA) to produce an agarose gel. An ethidium bromide solution (0.5 μL of 10 mg/mL) (Promega) was added before gelation. After incubation with EcoRI, the fluorescence intensity of the band of the excised OR23 fragment was measured via an ImageQuant LAS4000 (GE Healthcare Japan, Tokyo, Japan) with the following conditions: “Exposure Type”: Precision; “Exposure Time”: Manual 1/8 sec; “Sensitivity/Resolution”: Standard; and “Fluorescent Method”: Epi illumination; EtBr; UV (Trans UV) light; 6-5DF50 Filter; and F2.8 Iris.
For statistical analyses, Student’s t-test (unpaired and bi-sided), Dunnett’s test, and Pearson correlation analysis were performed via Microsoft Excel (Office 365) and JSTAT (Yokohama, Japan). The Dunnett’s test was performed for each experimental group that was examined simultaneously in the laboratory, in comparison to the “no peptide” control group that was examined simultaneously. The repeated measure mode of the Dunnett’s test was used on the assumption that there was no interaction between samples.

[2] = target: T1, EcoRI; test: Nonspecific nuclease activity of EcoRI reaction mixture with peptide (plasmid DNA degradation); type: biochemical; conditions: EcoRI plus peptide 1:500, 3 h; n = 3
Protocol: A recombinant plasmid, pCRII-TOPO (Invitrogen, Waltham, MA, USA), containing a PCR fragment of the full-length cDNA (978 bp) of the mouse odorant receptor OR23 [82, 83, 84, 85, 86] at the EcoRI cloning site (GAATTC) was used as a DNA substrate for EcoRI. […] This pCRII-TOPO-OR23 plasmid was prepared from TOP10F’ Escherichia coli (Invitrogen) using ATP Plasmid Mini Kit (ATP Biotech, Taipei, ROC). The plasmid solution was prepared at 40 ng/μL by adding autoclaved DNase-free RNase-free deionized H2O (Nippon Gene, Tokyo, Japan). The DNA concentrations were measured with a Qubit fluorometer (Invitrogen).
as §1
This reaction mixture containing EcoRI and BP19.5 appeared to degrade the plasmid DNA entirely. […] The DNA concentration at 3 h was 3.297 ± 0.006 ng/μL without any peptide in the reaction mixture and 0.332 ± 0.003 ng/μL with BP19.5, indicating a statistically significant difference (n = 3; unpaired bi-sided Student’s t-test; p = 1.6 × 10^−11). […] Therefore, BP19.5 and its derivatives are likely to cause EcoRI to become a nonspecific nuclease. In other words, BP19.5 was likely a specificity/activity modifier of EcoRI instead of an inhibitor.

T1 sequence (P00642 2-277): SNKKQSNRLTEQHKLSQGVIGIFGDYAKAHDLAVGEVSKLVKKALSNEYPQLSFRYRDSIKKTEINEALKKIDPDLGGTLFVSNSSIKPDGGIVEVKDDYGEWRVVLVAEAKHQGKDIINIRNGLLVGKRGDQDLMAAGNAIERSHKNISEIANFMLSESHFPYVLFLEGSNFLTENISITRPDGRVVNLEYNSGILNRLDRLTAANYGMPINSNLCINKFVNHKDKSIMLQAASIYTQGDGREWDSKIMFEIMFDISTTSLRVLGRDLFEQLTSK

Q: With NLCINKFVNHKDK [BP20] as the sequence, how does the “level of inhibitory effect on EcoRI (in words)” value ([1]; EcoRI:peptide 1:500, relative fluorescence intensity, n = 3) read?
A: especially notable; also recorded: strong inhibitory effect; also recorded: most effective

Q: And the “relative fluorescence intensity of excised OR23 fragment” value ([1]; relative to no peptide, EcoRI:peptide 1:500 molar ratio, 37 °C, 0.015 mM Mg2+, mean of n = 3)?
A: less than 0.3

Q: What about the “plasmid DNA degradation / nonspecific nuclease induction (agarose gel electrophoresis, in words)” value [2] of the same sequence?
A: does not induce nuclease activity
